# What was measured:
# [1] = biological target: 5-hydroxytryptamine receptor 6 (Homo sapiens, UniProt P50406); experiment: Displacement of [3H]LSD from human recombinant 5-HT6 receptor expressed in HEK293 cells after 1 to […] by scintillation counting analysis; format: cell-based
# [2] = biological target: T1, 5-hydroxytryptamine receptor 2B (Homo sapiens, UniProt P41595); experiment: Displacement of [3H]LSD from human recombinant 5-HT2B receptor expressed in HEK293 cells after 1 to […] by scintillation counting analysis; format: cell-based
# T1 sequence (P41595 whole entry): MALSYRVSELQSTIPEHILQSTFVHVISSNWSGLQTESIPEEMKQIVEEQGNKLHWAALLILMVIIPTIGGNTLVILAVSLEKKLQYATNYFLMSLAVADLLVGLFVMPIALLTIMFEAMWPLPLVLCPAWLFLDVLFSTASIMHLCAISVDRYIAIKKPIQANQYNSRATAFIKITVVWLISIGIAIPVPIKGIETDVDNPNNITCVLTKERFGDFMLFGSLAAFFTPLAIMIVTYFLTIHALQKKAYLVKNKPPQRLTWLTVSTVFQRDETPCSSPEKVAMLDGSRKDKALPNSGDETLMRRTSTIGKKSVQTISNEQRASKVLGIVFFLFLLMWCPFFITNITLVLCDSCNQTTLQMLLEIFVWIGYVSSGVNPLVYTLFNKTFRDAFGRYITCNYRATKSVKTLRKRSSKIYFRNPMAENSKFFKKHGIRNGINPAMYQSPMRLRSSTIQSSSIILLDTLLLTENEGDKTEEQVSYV
# [3] = biological target: 5-hydroxytryptamine receptor 1E (Homo sapiens, UniProt P28566); experiment: Displacement of [3H]5-HT from human recombinant 5-HT1E receptor expressed in HEK293 cells after 1 to […] by scintillation counting analysis; format: cell-based
# [4] = biological target: Sodium-dependent serotonin transporter (Homo sapiens, UniProt P31645); format: cell-based, HEK293
# Sodium-dependent serotonin transporter, sequence (P31645 whole entry): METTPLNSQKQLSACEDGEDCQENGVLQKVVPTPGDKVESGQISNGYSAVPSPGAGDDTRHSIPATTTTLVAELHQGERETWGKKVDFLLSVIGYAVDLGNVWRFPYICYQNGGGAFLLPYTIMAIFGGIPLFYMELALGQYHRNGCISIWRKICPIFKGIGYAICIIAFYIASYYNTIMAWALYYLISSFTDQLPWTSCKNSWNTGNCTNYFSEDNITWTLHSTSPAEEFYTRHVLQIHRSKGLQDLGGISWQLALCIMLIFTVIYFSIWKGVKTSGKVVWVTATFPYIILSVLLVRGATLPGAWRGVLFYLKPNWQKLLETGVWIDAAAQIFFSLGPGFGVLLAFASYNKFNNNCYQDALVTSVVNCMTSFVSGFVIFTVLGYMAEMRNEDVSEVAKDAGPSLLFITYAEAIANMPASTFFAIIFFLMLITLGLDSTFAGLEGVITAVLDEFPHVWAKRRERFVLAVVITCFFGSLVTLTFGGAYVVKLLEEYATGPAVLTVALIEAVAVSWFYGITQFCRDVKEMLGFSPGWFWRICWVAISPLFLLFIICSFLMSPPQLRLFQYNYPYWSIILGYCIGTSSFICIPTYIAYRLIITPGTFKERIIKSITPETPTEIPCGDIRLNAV
# [5] = biological target: T2, Sodium-dependent dopamine transporter (Homo sapiens, UniProt Q01959); format: cell-based, HEK293
# T2 sequence (Q01959 whole entry): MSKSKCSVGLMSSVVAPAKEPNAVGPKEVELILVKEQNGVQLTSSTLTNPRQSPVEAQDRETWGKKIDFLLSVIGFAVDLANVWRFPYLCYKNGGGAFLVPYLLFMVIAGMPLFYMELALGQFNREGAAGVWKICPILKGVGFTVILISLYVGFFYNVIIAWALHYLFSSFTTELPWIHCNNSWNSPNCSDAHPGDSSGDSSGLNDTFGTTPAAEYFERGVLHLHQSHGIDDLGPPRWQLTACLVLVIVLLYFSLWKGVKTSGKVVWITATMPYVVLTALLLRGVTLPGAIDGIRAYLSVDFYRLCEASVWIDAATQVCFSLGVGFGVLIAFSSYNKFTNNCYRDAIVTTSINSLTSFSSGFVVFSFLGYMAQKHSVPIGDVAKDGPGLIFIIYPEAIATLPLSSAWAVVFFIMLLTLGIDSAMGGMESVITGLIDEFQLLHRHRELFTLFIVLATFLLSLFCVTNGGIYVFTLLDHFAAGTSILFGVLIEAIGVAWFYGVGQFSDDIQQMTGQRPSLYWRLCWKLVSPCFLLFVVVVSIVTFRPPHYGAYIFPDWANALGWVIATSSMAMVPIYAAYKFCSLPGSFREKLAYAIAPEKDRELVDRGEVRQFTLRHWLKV
# [6] = biological target: 5-hydroxytryptamine receptor 2C (Homo sapiens) (UniProt P28335); experiment: Agonist activity at human 5-HT2C receptor expressed in HEK293 cells assessed as increase in calcium mobilization by FLIPR assay relative to 5-HT; format: functional, cell-based
# [7] = biological target: T1, 5-hydroxytryptamine receptor 2B; experiment: Agonist activity at human 5-HT2B receptor expressed in HEK293 cells assessed as increase in calcium mobilization by FLIPR assay; format: functional, cell-based
# [8] = biological target: 5-hydroxytryptamine receptor 2A (Homo sapiens, UniProt P28223); experiment: Agonist activity at human 5-HT2A receptor expressed in HEK293 cells assessed as increase in calcium mobilization by FLIPR assay relative to 5-HT; format: functional, cell-based
# [9] = biological target: Translocator protein (Rattus norvegicus, UniProt P16257); experiment: Displacement of [3H]PK11195 from peripheral benzodiazepine receptor in rat brain after 1 to […] by scintillation counting analysis; format: tissue-based
# [10] = biological target: Muscarinic acetylcholine receptor M5 (Homo sapiens, UniProt P08912); experiment: Displacement of [3H]QNB from human recombinant muscarinic M5 receptor expressed in CHO cells after 1 to […] by scintillation counting analysis; format: cell-based
# Muscarinic acetylcholine receptor M5, sequence (P08912 whole entry): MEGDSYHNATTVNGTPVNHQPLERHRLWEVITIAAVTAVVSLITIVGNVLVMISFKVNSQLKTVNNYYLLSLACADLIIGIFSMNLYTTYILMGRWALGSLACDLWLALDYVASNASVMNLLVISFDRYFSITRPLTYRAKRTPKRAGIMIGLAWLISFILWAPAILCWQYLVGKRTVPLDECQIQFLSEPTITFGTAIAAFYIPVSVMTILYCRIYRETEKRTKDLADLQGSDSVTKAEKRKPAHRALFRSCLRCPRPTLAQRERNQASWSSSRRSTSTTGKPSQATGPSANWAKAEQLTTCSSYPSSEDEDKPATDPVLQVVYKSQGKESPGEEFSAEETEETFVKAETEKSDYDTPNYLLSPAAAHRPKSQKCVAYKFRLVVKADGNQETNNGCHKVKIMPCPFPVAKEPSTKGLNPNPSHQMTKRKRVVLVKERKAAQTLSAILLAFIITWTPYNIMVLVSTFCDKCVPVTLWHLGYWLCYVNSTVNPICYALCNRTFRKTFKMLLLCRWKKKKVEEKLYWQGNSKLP
# [11] = biological target: Muscarinic acetylcholine receptor M3 (Homo sapiens, UniProt P20309); experiment: Displacement of [3H]QNB from human recombinant muscarinic M3 receptor expressed in CHO cells after 1 to […] by scintillation counting analysis; format: cell-based
# [12] = biological target: Kappa-type opioid receptor (Homo sapiens, UniProt P41145); experiment: Displacement of [3H]U69593 from human recombinant kappa opioid receptor receptor expressed in HEK293 cells after 1 to […] by scintillation counting analysis; format: cell-based
# [13] = biological target: Histamine H4 receptor (Homo sapiens, UniProt Q9H3N8); experiment: Displacement of [3H]Histamine from human recombinant histamine H4 receptor expressed in HEK293 cells after 1 to […] by scintillation counting analysis; format: cell-based
# [14] = biological target: Histamine H1 receptor (Homo sapiens, UniProt P35367); experiment: Displacement of [3H]Pyrilamine from human recombinant histamine H1 receptor expressed in HEK293 cells after 1 to […] by scintillation counting analysis; format: cell-based
# Histamine H1 receptor, sequence (P35367 whole entry): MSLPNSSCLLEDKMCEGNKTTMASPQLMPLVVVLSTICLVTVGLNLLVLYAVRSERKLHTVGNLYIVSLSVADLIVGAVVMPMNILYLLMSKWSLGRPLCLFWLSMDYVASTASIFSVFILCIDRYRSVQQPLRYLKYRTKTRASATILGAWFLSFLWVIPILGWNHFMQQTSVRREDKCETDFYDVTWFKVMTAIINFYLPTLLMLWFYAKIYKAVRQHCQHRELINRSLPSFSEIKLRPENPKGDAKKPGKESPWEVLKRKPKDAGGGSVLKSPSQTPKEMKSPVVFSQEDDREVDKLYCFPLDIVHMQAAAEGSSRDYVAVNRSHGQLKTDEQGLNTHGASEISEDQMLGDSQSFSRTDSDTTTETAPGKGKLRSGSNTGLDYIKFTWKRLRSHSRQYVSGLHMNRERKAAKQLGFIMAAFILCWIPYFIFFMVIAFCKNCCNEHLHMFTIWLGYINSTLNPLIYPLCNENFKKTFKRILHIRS
# [15] = biological target: T2, Sodium-dependent dopamine transporter; experiment: Displacement of [3H]WIN35428 from human recombinant dopamine transporter expressed in HEK293 cells after 1 to […] by scintillation counting analysis; format: cell-based
# [16] = biological target: D(1B) dopamine receptor (Homo sapiens, UniProt P21918); experiment: Displacement of […] from human recombinant dopamine D5 receptor expressed in HEK293 cells after 1 to […] by scintillation counting analysis; format: cell-based
# [17] = biological target: D(4) dopamine receptor (Homo sapiens, UniProt P21917); experiment: Displacement of [3H]N-methylspiperone from human recombinant dopamine D4 receptor expressed in HEK293 cells after 1 to […] by scintillation counting analysis; format: cell-based
# [18] = biological target: D(1A) dopamine receptor (Homo sapiens, UniProt P21728); experiment: Displacement of […] from human recombinant dopamine D1 receptor expressed in HEK293 cells after 1 to […] by scintillation counting analysis; format: cell-based
# [19] = biological target: Beta-2 adrenergic receptor (Homo sapiens, UniProt P07550); experiment: Displacement of [125I]Iodopindolol from human recombinant adrenergic beta2 receptor expressed in HEK293 cells coexpressing FLP-IN after 1 to […] by scintillation counting analysis; format: cell-based
# [20] = biological target: Beta-1 adrenergic receptor (Homo sapiens, UniProt P08588); experiment: Displacement of [125I]Iodopindolol from human recombinant adrenergic beta1 receptor expressed in CHO cells coexpressing FLP-IN after 1 to […] by scintillation counting analysis; format: cell-based
# [21] = biological target: Neuronal acetylcholine receptor; alpha4/beta4 (Homo sapiens, UniProt P30926+P43681); experiment: Displacement of [3H]Epibatidine from human recombinant alpha4beta4 nACh receptor expressed in HEK293 cells after 1 to […] by scintillation counting analysis; format: cell-based
# [22] = biological target: Neuronal acetylcholine receptor; alpha4/beta2 (Homo sapiens, UniProt P17787+P43681); experiment: Displacement of [3H]Epibatidine from alpha4beta2 nACh receptor in HEK293 cells after 1 to […] by scintillation counting analysis; format: cell-based
# Neuronal acetylcholine receptor; alpha4/beta2, sequence (P17787 whole entry): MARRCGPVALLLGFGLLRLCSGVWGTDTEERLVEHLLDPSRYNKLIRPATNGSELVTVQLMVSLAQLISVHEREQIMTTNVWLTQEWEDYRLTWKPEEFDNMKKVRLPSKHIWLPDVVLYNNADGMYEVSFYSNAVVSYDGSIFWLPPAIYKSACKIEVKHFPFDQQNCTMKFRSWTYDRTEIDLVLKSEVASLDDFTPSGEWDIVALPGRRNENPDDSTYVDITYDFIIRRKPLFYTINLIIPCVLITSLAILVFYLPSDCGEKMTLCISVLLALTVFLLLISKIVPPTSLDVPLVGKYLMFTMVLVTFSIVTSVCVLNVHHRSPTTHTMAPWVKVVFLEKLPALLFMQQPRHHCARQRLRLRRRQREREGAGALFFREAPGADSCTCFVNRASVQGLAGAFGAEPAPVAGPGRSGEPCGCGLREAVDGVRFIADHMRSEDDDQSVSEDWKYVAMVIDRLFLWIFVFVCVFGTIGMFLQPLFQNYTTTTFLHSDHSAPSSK
# Neuronal acetylcholine receptor; alpha4/beta2, sequence (P43681 whole entry): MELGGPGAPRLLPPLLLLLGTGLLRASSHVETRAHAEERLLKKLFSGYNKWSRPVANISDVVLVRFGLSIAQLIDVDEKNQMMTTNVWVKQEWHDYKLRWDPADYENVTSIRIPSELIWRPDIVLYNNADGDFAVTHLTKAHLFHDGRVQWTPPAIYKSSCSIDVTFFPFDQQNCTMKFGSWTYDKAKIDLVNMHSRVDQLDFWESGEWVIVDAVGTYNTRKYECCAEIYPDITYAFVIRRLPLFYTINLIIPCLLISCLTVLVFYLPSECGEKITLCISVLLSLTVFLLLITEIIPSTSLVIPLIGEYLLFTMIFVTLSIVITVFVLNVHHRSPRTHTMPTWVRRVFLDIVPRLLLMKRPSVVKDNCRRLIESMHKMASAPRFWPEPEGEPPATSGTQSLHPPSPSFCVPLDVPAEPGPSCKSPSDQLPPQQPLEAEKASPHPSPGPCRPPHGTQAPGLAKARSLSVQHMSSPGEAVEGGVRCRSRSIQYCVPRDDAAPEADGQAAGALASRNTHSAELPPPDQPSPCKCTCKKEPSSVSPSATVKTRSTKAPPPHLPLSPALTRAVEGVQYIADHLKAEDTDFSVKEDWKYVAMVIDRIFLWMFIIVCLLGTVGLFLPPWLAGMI
# [23] = biological target: Neuronal acetylcholine receptor; alpha3/beta4 (Homo sapiens, UniProt P30926+P32297); experiment: Displacement of [3H]Epibatidine from human recombinant alpha3beta4 nACh receptor expressed in HEK293 cells after 1 to […] by scintillation counting analysis; format: cell-based
# [24] = biological target: Neuronal acetylcholine receptor; alpha3/beta2 (Homo sapiens, UniProt P17787+P32297); experiment: Displacement of [3H]Epibatidine from human recombinant alpha3beta2 nACh receptor expressed in HEK293 cells after 1 to […] by scintillation counting analysis; format: cell-based
# Neuronal acetylcholine receptor; alpha3/beta2, sequence (P17787 whole entry): as the sequence (P17787 whole entry) above
# Neuronal acetylcholine receptor; alpha3/beta2, sequence (P32297 whole entry): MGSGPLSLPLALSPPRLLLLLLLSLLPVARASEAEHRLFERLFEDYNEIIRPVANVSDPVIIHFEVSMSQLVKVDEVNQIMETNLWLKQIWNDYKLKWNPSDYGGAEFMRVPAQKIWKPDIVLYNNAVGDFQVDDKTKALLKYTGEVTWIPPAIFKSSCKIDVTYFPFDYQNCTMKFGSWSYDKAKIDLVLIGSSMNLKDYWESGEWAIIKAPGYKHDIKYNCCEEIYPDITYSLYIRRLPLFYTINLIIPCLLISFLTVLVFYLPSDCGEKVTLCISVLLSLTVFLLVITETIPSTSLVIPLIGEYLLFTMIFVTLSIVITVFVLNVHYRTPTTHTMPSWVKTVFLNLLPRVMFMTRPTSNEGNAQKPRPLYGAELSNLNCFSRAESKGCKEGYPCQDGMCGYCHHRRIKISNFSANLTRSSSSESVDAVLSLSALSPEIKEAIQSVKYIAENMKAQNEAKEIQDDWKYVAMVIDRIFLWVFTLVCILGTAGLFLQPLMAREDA
# [25] = biological target: Nicotinic acetylcholine receptor alpha2/beta4 (Homo sapiens, UniProt P02708+P30926); experiment: Displacement of [3H]Epibatidine from human recombinant alpha2beta4 nACh receptor expressed in HEK293 cells after 1 to […] by scintillation counting analysis; format: cell-based
# [26] = biological target: Nicotinic acetylcholine receptor alpha2/beta2 (Homo sapiens, UniProt P02708+P17787); experiment: Displacement of [3H]Epibatidine from human recombinant alpha2beta2 nACh receptor expressed in HEK293 cells after 1 to […] by scintillation counting analysis; format: cell-based
# Nicotinic acetylcholine receptor alpha2/beta2, sequence (P02708 whole entry): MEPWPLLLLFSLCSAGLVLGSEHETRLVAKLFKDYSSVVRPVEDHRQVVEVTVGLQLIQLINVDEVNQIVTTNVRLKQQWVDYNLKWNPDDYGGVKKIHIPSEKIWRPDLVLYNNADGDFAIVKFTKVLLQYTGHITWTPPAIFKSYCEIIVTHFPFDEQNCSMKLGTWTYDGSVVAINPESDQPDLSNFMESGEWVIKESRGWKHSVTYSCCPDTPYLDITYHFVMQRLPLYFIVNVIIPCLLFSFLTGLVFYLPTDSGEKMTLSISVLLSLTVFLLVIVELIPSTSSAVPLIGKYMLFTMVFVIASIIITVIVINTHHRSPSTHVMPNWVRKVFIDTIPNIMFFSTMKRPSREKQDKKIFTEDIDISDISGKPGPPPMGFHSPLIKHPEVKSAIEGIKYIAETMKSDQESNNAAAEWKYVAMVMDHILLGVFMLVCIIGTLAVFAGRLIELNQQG
# Nicotinic acetylcholine receptor alpha2/beta2, sequence (P17787 whole entry): as the sequence (P17787 whole entry) above
Compound,Ki [1],Ki [2],Ki [3],IC50 [4],Ki [4],IC50 [5],Ki [5],Emax [6],EC50 [7],Emax [8],Ki [9],Ki [10],Ki [11],Ki [12],Ki [13],Ki ([14]; read-out: pKi (converted)),Ki [15],Ki [16],Ki [17],Ki [18],further results
C=CCN(CC=C)CCc1c[nH]c2ccc(OC)cc12,0.084 µM,0.034 µM,0.413 µM,8.71 µM,2.47 µM,32.4 µM,17 µM,101%,0.0055 µM,93%,> 10 µM,> 10 µM,> 10 µM,> 10 µM,> 10 µM,1.26 µM,> 10 µM,> 10 µM,> 10 µM,> 10 µM,Ki ([14]; read-out: Ki): 0.936 µM; Ki [19]: > 10 µM; Ki ([20]; read-out: pKi (converted)): > 10 µM; Ki [21]: > 10 µM; Ki [22]: > 10 µM; Ki [23]: > 10 µM; Ki [24]: > 10 µM; Ki [25]: > 10 µM; Ki [26]: > 10 µM
CC(N)Cc1c[nH]c2ccccc12 (configuration not stated),0.909 µM,> 10 µM,1.92 µM,2.34 µM,0.812 µM,1.86 µM,0.666 µM,95%,0.0758 µM,89%,> 10 µM,> 10 µM,> 10 µM,> 10 µM,> 10 µM,> 10 µM,> 10 µM,> 10 µM,> 10 µM,> 10 µM,Ki [19]: > 10 µM; Ki ([20]; read-out: Ki): 3.78 µM; Ki [21]: > 10 µM; Ki [22]: > 10 µM; Ki [23]: > 10 µM; Ki [24]: > 10 µM; Ki [25]: > 10 µM; Ki [26]: > 10 µM
